Reference: patent publication US12569473B2, “Methods to treat respiratory infection utilizing castanospermine analogs” (60 Degrees Pharmaceuticals, Inc., priority 2022, dated 2026)
Counter-ions that a name gives are not always drawn. Like-named read-outs stand apart in the source and are kept apart here.

Assays:
[1] = Cytotoxicity, neutral red assay, HeLa Ohio cells; assay type: cell-based; conditions: human, unit inferred
Description: (§1) The efficacy of celgosivir and castanospermine against RSV and human rhinovirus-14 was assessed in vitro. For RSV studies, embryonic African green monkey kidney cells (MA-104) were grown in minimal essential medium (MEM) supplemented with 0.1% NaHCO3 and 10% fetal bovine serum. When performing antiviral assays, serum was reduced to 2% and […] gentamicin was added to the medium. RSV strain A2 was used for the studies. For rhinovirus studies, the HeLa Ohio cell line was used in place of MA-104 cells.
(§2) CPE inhibition assays with visual quantification of antiviral activity and cytotoxicity were performed as described by Sidwell and Huffman (1971) with slight modifications. Sidwell, R. W. and Huffman, J. H. (1971) Use of disposable micro-tissue culture plates for antiviral and interferon induction studies. Appl. Microbiol. 22, […]. […] All compounds were assayed for virus inhibition in quadruplicate and for cytotoxicity in duplicate. For rhinovirus studies, Pirodavir was applied at a concentration of 0.001-1 μg/ml as the positive control compound. For RSV studies, the positive control compound was Ribavirin applied at a concentration of 0.5-500 μg/ml. For each compound, two wells were set aside as uninfected, untreated cell controls per test and four wells per test received virus only and represented controls for virus replication. […] A selective index (S.I.) was calculated for each compound (SI.=(IC50)/(EC50)).
(§3) Neutral red assay of CPE inhibition and cytotoxicity was performed by a modified method as described by Cavenaugh et al. (1990). […] Briefly, medium was removed from each well of a plate scored for CPE from the visual CPE inhibition assay, 0.2 ml of neutral red (0.034% in PSS) was added to each of the wells of that plate and the plate incubated for 2 h at 37° C. in the dark. […] Absorbances at 540 and 450 nm were read with a microplate reader (Bio-Tek EL 1309; Bio-Tek Instruments). […] Absorbance values were expressed as percentages of untreated controls and EC50 and IC50 values were calculated by regression analysis

[2] = Cytotoxicity, visual examination, HeLa Ohio cells; assay type: cell-based; conditions: human, unit inferred
Description: as §1
(§4) CPE inhibition assays with visual quantification of antiviral activity and cytotoxicity were performed as described by Sidwell and Huffman (1971) with slight modifications. Sidwell, R. W. and Huffman, J. H. (1971) Use of disposable micro-tissue culture plates for antiviral and interferon induction studies. Appl. Microbiol. 22, […]. […] All compounds were assayed for virus inhibition in quadruplicate and for cytotoxicity in duplicate. For rhinovirus studies, Pirodavir was applied at a concentration of 0.001-1 μg/ml as the positive control compound. For RSV studies, the positive control compound was Ribavirin applied at a concentration of 0.5-500 μg/ml. For each compound, two wells were set aside as uninfected, untreated cell controls per test and four wells per test received virus only and represented controls for virus replication. […] For all CPE-based assays, the 50% effective concentration (EC50) was calculated by regression analysis using the means of the CPE ratings at each concentration of compound. Morphological changes due to compound cytotoxicity were graded on a scale of 0-5; grade 5 was defined as 100% cytotoxicity. The 50% cytotoxic dose (IC50) was calculated by regression analysis. A selective index (S.I.) was calculated for each compound (SI.=(IC50)/(EC50)).

human rhinovirus-14 [3] = experiment: CPE inhibition assay, visual examination, human rhinovirus-14; assay type: cell-based; conditions: for EC50: visual examination, HeLa Ohio cells, unit inferred; for efficacy against human rhinovirus-14: at the concentrations tested (0.3-300 microM)
Description: as §1, §4

human rhinovirus-14 [4] = experiment: Neutral red assay of CPE inhibition, human rhinovirus-14; assay type: cell-based; conditions: HeLa Ohio cells, unit inferred
Description: as §1, §2, §3

RSV strain A2 [5] = experiment: Neutral red assay of CPE inhibition, RSV; assay type: cell-based; conditions: human respiratory syncytial virus, MA104, MA-104 cells, unit inferred
Description: as §1, §2, §3

RSV [strain A/A2] [6] = experiment: Nose and lung viral titers in RSV-infected cotton rats; assay type: in vivo, Cotton rats [Sigmodon hispidus]; conditions: Day 5 post infection, celgosivir 25, 50 or 100 mg/kg BID from one day before or after infection, synagis 2.5 mg/kg i.m. once per day, vs vehicle
Description: (§5) Cotton rats [Sigmodon hispidus, 2 male & 3 female, 6-8 weeks old] provided with standard rodent chow and water ad lib, were infected intranasally with RSV [strain A/A2, 10^5 pfu] on Day 0. Animals received celgosivir [25, 50 or 100 mg/kg BID for total daily doses of 50, 100 or 200 mg/kg] daily beginning one day before or after infection and were sacrificed on Day 5-post-infection for histopathology, qPCR, and viral load assessment. Control groups included a [i] positive control Synagis [2.5 mg/kg, i.m, once per day from the first day post-infection], [ii] vehicle control in which vehicle was administered twice per day beginning one day prior to RSV infection, [iii] a vehicle control group that were mock-infected with PBS for which treatment was initiated beginning one day prior to infection, and [iv] an untreated group mock infected with PBS that received no treatment. Animals were weighed on Day −1 and Day 5, and plasma was obtained by retro-orbital bleed on the same days.
(§6) The RSV strain for inoculation [A/A2 (RSV A/A2) (ATCC, Manassas, VA)] was propagated in HEp-2 cells after serial plaque-purification to reduce defective-interfering particles. A pool of virus designated containing approximately 3.0×10^8 pfu/mL in sucrose stabilizing media was used in the experiment. This stock of virus was stored at −80° C. and was previously characterized in vivo in the cotton rat model and validated for upper and lower respiratory tract replication.
Viral Titers: Nose and lung homogenates were centrifuged and diluted in EMEM. Confluent HEp-2 monolayers were infected in duplicate with diluted homogenates in 24-well plates. Following one hour incubation at 37° C. […] Plaques were counted and virus titer determined as geometric mean plaque-forming units per gram of tissue±standard error for all animals in a group at a given time.
Statistics: Group means for each parameter were evaluated by one-way ANOVA, then individual group means were compared [t-test, with multiple comparison correction] to the RSV-infected, vehicle-treated control group. […]

[7] = Cytotoxicity, neutral red assay, MA-104 cells; assay type: cell-based; conditions: African green monkey, MA-104 cells (embryonic African green monkey kidney), unit inferred
Description: as §1, §2, §3

[8] = cited from earlier work
RSV [strain A/A2] [9] = experiment: Pulmonary histopathology in RSV-infected cotton rats; assay type: in vivo, Cotton rats [Sigmodon hispidus]; conditions: for lung histopathology scores (RSV-induced inflammation): Day 5 post infection, celgosivir 25, 50 or 100 mg/kg BID from one day before or after infection, synagis 2.5 mg/kg i.m. once per day, vs vehicle
Description: as §5, §6
Pulmonary Histopathology: Lungs were removed and inflated with 10% neutral buffered formalin to their normal volume, then fixed [using the same solution]. After fixation, lungs were embedded in paraffin, sectioned, and stained with H&E. Four parameters of pulmonary inflammation were evaluated: peribronchiolitis (inflammatory cell infiltration around the bronchioles), perivasculitis (inflammatory cell infiltration around the small blood vessels), interstitial pneumonia (inflammatory cell infiltration and thickening of alveolar walls), and alveolitis (cells within the alveolar spaces). Slides were blindly scored on a 0-4 severity scale. The scores are subsequently converted to a 0-100% normalized scale.
Statistics: Group means for each parameter were evaluated by one-way ANOVA, then individual group means were compared [t-test, with multiple comparison correction] to the RSV-infected, vehicle-treated control group. P<0.05 was considered statistically significant.

[10] = Cytotoxicity, visual examination, MA-104 cells; assay type: cell-based, African green monkey; conditions: African green monkey
Description: as §1, §4

[11] = tested on: embryonic African green monkey kidney cells (MA-104); experiment: Cytotoxicity, visual examination, MA-104 cells; assay type: cell-based
Description: as §1, §4

[12] = literature (Sorbera et al); cited from earlier work
RSV strain A2 [13] = experiment: CPE inhibition assay, visual examination, RSV; assay type: cell-based; conditions: for EC50: human respiratory syncytial virus, unit inferred
Description: as §1, §4

[14] = Pharmacokinetic simulations using CELADEN study parameters; set-up: species or system human; conditions: linear extrapolation
Description: It is known that a steady state minimum castanospermine concentration of 400 nanograms/ml is associated with a 50 mg/kg BID dose in mice and that the antiviral effect of celgosivir in vivo seems to be correlated with the minimum steady state concentration of castanospermine (Watanabe et al). […] International Publication No. WO 2014/143907 discloses pharmacokinetic parameters for castanospermine for the CELADEN study. […] Extrapolating linearly, therefore, the minimum protective dose (achieving 400 nanograms/ml steady state minimum) is approximately 40 mg every 6 h, 75 mg every 8 h and 225 mg every 12 h. Further, WO 2014/143907 discloses that the CELADEN study regimen produce a steady state maximum castanospermine concentration of 5100 nanograms/ml. […] The FDA has published generic scaling factors to adjust mg/kg dosing in animals to mg/kg dosing in humans. Generically for mice, that scaling factor is 12. Therefore, 50 mg/kg BID is equivalent to a dose of 4.2 mg/kg BID in humans, which for a 60 kg human is equivalent to 250 mg. The same dose administered three or four times daily is equivalent to 167 mg and 125 mg and 2.8 and 2.1 mg/kg respectively. In a 60 kg human, the maximum single dose is 6.7 mg/kg, and the maximum daily dose is 10 mg/kg.

[15] = mice; 50 mg/kg BID dose; cited from earlier work
[16] = positive control applied at 0.001-1 μg/ml
[17] = compounds tested at 0.3, 3, 30 and 300 microM
[18] = in theory, CELADEN study, confirming literature
[19] = MA104, visual examination, MA-104 cells, compounds tested at 0.3, 3, 30 and 300 microM
[20] = positive control applied at 0.5-500 μg/ml

Compound: CCOC(=O)c1ccc(OCCC2CCN(c3ccc(C)nn3)CC2)cc1 [Pirodavir, reference compound]
- CC50 at 6 days [1, 16]: > 1 µg/mL
- CC50 at 6 days [2, 16]: > 1 µg/mL
- EC50 (human rhinovirus-14 [3]; [16]): 0.032 µg/mL
- EC50 (human rhinovirus-14 [4]; [16]): 0.031 µg/mL

Compound: CCCC(=O)O[C@H]1CN2CC[C@H](O)[C@@H]2[C@@H](O)[C@@H]1O [Celgosivir HCL]
- EC50 (RSV strain A2 [5]; [17]): 34 µM
- nasal and lung viral titer (RSV [strain A/A2] [6]; listed as Celgosivir): no effect on viral titer in either the nose or the lung
- nasal and lung viral titer (RSV [strain A/A2] [6]; listed as celgosivir): did not
- CC50 at 6 days [1, 17]: > 300 µM
- CC50 at 6 days [2, 17]: > 300 µM
- efficacy against human rhinovirus-14 (human rhinovirus-14 [3]): Neither celgosivir nor castanospermine were determined to be efficacious
- EC50 (human rhinovirus-14 [3]; [17]): > 300 µM
- CC50 at 6 days [7, 17]: > 300 µM
- adverse event profile ([8]; CELADEN study regimen): higher incidence of GI effects, but not increased severity
- maximum daily dose as a total dose [8, 18]: ≤ 600 mg
- maximum dose as a single dose [8, 18]: ≤ 400 mg
- lung histopathology scores (RSV-induced inflammation) (RSV [strain A/A2] [9]; listed as Celgosivir): reduced inflammation at all doses on three of four histopathology parameters
- lung histopathology scores (RSV-induced inflammation) (RSV [strain A/A2] [9]; listed as celgosivir): reduced for at least one domain for all doses
- impact of timing of administration on degree of protection against inflammation (RSV [strain A/A2] [9]; dosing begun one day prior to vs one day after infection (FIG. 1)): minimal impact
- CC50 at 6 days ([10]; MA-104 cells (embryonic African green monkey kidney), RSV studies, text summary over visual and neutral red assays, unit inferred, read-out: CC50): ≥ 300 µM
- CC50 at 6 days ([10]; MA-104 cells (embryonic African green monkey kidney), visual examination, MA-104 cells, compounds tested at 0.3, 3, 30 and 300 microM, unit inferred, read-out: CC50): > 300 µM
- safety in vitro (CC50 above the highest concentration tested) ([11]; all concentrations tested (0.3-300 microM), text summary of the cytotoxicity assays): safe at all concentrations tested
- pharmacokinetics, dose linearity [12]: linear with dose over the tolerated dose range
- EC50 (RSV strain A2 [13]; [19]): 37 µM
- EC50 (RSV strain A2 [13]; against RSV, text summary over visual and neutral red assays): 34 to 37 µM
- efficacy against RSV infection (RSV strain A2 [13]; in vitro): efficacious
- minimum protective dose (achieving 400 nanograms/ml steady state minimum) ([14]; every 6 h): approximately 40 mg
- minimum protective dose (achieving 400 nanograms/ml steady state minimum) ([14]; every 8 h): ~75 mg
- minimum protective dose (achieving 400 nanograms/ml steady state minimum) ([14]; every 12 h): ~225 mg
- EC50 (human rhinovirus-14 [4]; [17]): > 300 µM

Compound: Synagis: positive control in cotton rat RSV study, 2.5 mg/kg i.m. once per day
- nasal and lung viral titer (RSV [strain A/A2] [6]): decrease viral titer
- lung histopathology scores (RSV-induced inflammation) (RSV [strain A/A2] [9]): statistically significant reductions across all four histopathology domains

Compound: O[C@H]1[C@H](O)[C@@H](O)CN2CC[C@H](O)[C@H]12 [Castanospermine]
- EC50 (RSV strain A2 [5]; [17]): > 300 µM
- CC50 at 6 days [1, 17]: > 300 µM
- CC50 at 6 days [2, 17]: > 300 µM
- efficacy against human rhinovirus-14 (human rhinovirus-14 [3]): Neither celgosivir nor castanospermine were determined to be efficacious
- EC50 (human rhinovirus-14 [3]; [17]): > 300 µM
- CC50 at 6 days [7, 17]: > 300 µM
- steady state maximum castanospermine concentration ([8]; CELADEN study regimen): 5100 nanograms/ml
- steady state minimum castanospermine concentration [15]: 400 nanograms/ml
- CC50 at 6 days ([10]; CC50): > 300 µM
- safety in vitro (CC50 above the highest concentration tested) [11]: safe at all concentrations tested
- EC50 (RSV strain A2 [13]; [19]): > 300 µM
- EC50 (human rhinovirus-14 [4]; [17]): > 300 µM

Compound: NC(=O)c1ncn([C@@H]2O[C@H](CO)[C@@H](O)[C@H]2O)n1 [Ribavirin, reference compound]
- EC50 (RSV strain A2 [5]; [20]): 2.8 µg/mL
- CC50 at 6 days [7, 20]: 62 µg/mL
- CC50 at 6 days ([10]; MA-104 cells (embryonic African green monkey kidney), visual examination, MA-104 cells, positive control applied at 0.5-500 μg/ml, unit inferred, read-out: CC50): 340 µg/mL
- EC50 (RSV strain A2 [13]; MA104, visual examination, MA-104 cells, positive control applied at 0.5-500 μg/ml): 4 µg/mL
